Results taken from publication PMC6680840 (Molecules, 2019).
Where “and” joins values, the source holds several entries; their conditions need not be identical. Identical values can stand only once.

How the values were obtained:
[1] = molecular target: T1, AChE (from human erythrocyte) (Homo sapiens, UniProt P22303); experiment: biochemical; conditions: for AChE IR (%) inhibition ratio: at 50 μM; for IC50: mean ± SD of three separate experiments
T1 construct: AChE (EC 3.1.1.8, from human erythrocyte); purchased Sigma-Aldrich (St. Louis, MO, USA); host or cells: human erythrocyte
T1 sequence (P22303 other isoform, or with tags, fused parts or gaps): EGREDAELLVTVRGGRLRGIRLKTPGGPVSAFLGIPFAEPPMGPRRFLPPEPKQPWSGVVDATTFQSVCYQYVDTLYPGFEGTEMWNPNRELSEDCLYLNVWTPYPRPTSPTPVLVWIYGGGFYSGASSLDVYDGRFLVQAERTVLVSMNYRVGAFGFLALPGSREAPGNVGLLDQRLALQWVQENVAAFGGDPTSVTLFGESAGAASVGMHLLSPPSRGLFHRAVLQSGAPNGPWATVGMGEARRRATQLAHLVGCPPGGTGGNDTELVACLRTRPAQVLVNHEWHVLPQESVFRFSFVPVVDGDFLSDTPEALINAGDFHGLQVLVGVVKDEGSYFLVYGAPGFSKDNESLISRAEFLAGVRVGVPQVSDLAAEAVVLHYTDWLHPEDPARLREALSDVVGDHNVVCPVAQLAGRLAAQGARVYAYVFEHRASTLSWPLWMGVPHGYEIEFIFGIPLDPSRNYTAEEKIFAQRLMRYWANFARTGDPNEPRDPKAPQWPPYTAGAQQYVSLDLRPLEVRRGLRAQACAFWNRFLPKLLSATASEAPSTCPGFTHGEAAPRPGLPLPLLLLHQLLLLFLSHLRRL
Description: (§1) BChE (EC 3.1.1.8, from human serum), AChE (EC […]), butyrylthiocholine (BUC) iodide, and acetylthiocholine (ATC) iodide were purchased from Sigma-Aldrich (St. Louis, MO, USA). Enzyme was dissolved and pre-prepared at 2.0 U/mL. 10 μL of enzyme, 20 μL of 0.01 M 5,5′-dithiobis(2-nitrobenzoic acid), 10 μL of tested compound, and 40 μL of PBS were pre-incubated together for 5 min. Io initiate the reaction, 20 μL of 0.01 M BUC or ATC was added. The activity was determined by measuring the increase in absorbance at 410 nm at 37 °C in 2 min intervals using Tecan Spark multimode microplate reader (Mannedorf, Switzerland). The percentage of inhibition (I) was calculated according to the formula: I = (Ac − Ai)/Ac × 100%, with Ai and Ac representing the change in the absorbance in the presence of an inhibitor and without an inhibitor, respectively.

[2] = molecular target: T2, BChE (EC 3.1.1.8, from human serum) (Homo sapiens, UniProt P06276); experiment: biochemical; conditions: for BChE IR (%) inhibition ratio: at 50 μM; for IC50: mean ± SD of three separate experiments
T2 construct: BChE (EC 3.1.1.8, from human serum); purchased Sigma-Aldrich (St. Louis, MO, USA); host or cells: human serum
T2 sequence (P06276 29-602): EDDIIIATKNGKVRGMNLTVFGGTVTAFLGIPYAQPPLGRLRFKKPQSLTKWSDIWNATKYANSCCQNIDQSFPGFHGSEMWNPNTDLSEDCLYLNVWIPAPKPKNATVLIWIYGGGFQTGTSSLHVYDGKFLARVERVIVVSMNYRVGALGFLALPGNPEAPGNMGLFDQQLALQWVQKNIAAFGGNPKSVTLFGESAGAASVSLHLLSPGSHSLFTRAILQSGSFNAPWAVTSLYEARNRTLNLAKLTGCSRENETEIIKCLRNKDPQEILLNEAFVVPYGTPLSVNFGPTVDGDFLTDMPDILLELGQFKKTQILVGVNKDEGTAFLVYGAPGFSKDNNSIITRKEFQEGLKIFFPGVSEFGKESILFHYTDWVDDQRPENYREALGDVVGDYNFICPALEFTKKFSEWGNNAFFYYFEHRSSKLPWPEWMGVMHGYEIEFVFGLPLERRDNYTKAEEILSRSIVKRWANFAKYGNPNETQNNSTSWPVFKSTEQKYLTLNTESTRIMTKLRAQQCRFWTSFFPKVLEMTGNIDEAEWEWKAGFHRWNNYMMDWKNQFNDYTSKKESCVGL
Description: as §1

SMILES | AChE IR (%) inhibition ratio [1] [%] | IC50 [1] [µM] | BChE IR (%) inhibition ratio [2] [%] | IC50 [2]
CCN(CC)CCNC(=O)c1ccc(CN2CCc3ccccc3C2)cc1 [Compound 1, N-(2-(diethylamino)ethyl)-4-((3,4-dihydroisoquinolin-2(1H)-yl)methyl)benzamide] | 26.6 | > 50 | 68.4 | 17.9 µM
CC(C)N(CCNC(=O)c1ccc(CN2CCc3ccccc3C2)cc1)C(C)C [Compound 2, 4-((3,4-dihydroisoquinolin-2(1H)-yl)methyl)-N-(2-(diisopropylamino)ethyl)benzamide] | 56.1 | 21.5 ± 0.98 | 76.4 | 9.98 ± 0.89 µM
CN(C)CCNC(=O)c1ccc(CN2CCc3ccccc3C2)cc1 [Compound 3, 4-((3,4-dihydroisoquinolin-2(1H)-yl)methyl)-N-(2-(dimethylamino)ethyl)benzamide] | 11.4 |  | 36.9 | 
CCNCCNC(=O)c1ccc(CN2CCc3ccccc3C2)cc1 [Compound 4, 4-((3,4-dihydroisoquinolin-2(1H)-yl)methyl)-N-(2-(ethylamino)ethyl)benzamide] | 8.8 |  | 27.2 | 
COC(CNC(=O)c1ccc(CN2CCc3ccccc3C2)cc1)OC [Compound 5, 4-((3,4-dihydroisoquinolin-2(1H)-yl)methyl)-N-(2,2-dimethoxyethyl)benzamide] | 2.7 |  | 56.6 | 38.1 ± 1.68 µM
O=C(NCCN1CCOCC1)c1ccc(CN2CCc3ccccc3C2)cc1 [Compound 6, 4-((3,4-dihydroisoquinolin-2(1H)-yl)methyl)-N-(2-morpholinoethyl)benzamide] | 13.4 |  | 19.1 | 
O=C(NCCN1CCCC1)c1ccc(CN2CCc3ccccc3C2)cc1 [Compound 7, 4-((3,4-dihydroisoquinolin-2(1H)-yl)methyl)-N-(2-(pyrrolidin-1-yl)ethyl)benzamide] | 4.4 |  |  | 15.2 ± 2.33 µM
CCN1CCCC1CNC(=O)c1ccc(CN2CCc3ccccc3C2)cc1 (centres unmarked) [Compound 8, 4-((3,4-dihydroisoquinolin-2(1H)-yl)methyl)-N-((1-ethylpyrrolidin-2-yl)methyl)benzamide] | 13.3 |  | 63.0 | 25 ± 1.27 µM
O=C(c1ccc(CN2CCc3ccccc3C2)cc1)N1CCOCC1 [Compound 10, (4-((3,4-dihydroisoquinolin-2(1H)-yl)methyl)phenyl)(morpholino)methanone] | 3.4 |  | 11.2 | 
O=C(c1ccc(CN2CCc3cc(Br)ccc3C2)cc1)N1CCCC1 [Compound 11, (4-((6-bromo-3,4-dihydroisoquinolin-2(1H)-yl)methyl)phenyl)(pyrrolidin-1-yl)methanone] |  | 30.6 ± 1.82 |  | 8.38 ± 0.65 µM
O=C(c1ccc(CN2CCc3ccc(Br)cc3C2)cc1)N1CCCC1 [Compound 12, (4-((7-bromo-3,4-dihydroisoquinolin-2(1H)-yl)methyl)phenyl)(pyrrolidin-1-yl)methanone] |  | > 50 |  | 39.4 ± 2.25 µM
COc1ccc2c(c1)CCN(Cc1ccc(C(=O)N3CCCC3)cc1)C2 [Compound 13, (4-((6-methoxy-3,4-dihydroisoquinolin-2(1H)-yl)methyl)phenyl)(pyrrolidin-1-yl)methanone] |  | 12.1 ± 0.9 |  | 12.6 ± 0.88 µM
COc1cc2c(cc1OC)CN(Cc1ccc(C(=O)N3CCCC3)cc1)CC2 [Compound 14, (4-((6,7-dimethoxy-3,4-dihydroisoquinolin-2(1H)-yl)methyl)phenyl)(pyrrolidin-1-yl)methanone] |  | 18.2 ± 0.86 |  | 
O=C(Nc1ccccc1)c1ccc(CN2CCc3ccccc3C2)cc1 [Compound 15, 4-((3,4-dihydroisoquinolin-2(1H)-yl)methyl)-N-phenylbenzamide] | 8 |  | 23.7 | 
O=C(Nc1ccccc1F)c1ccc(CN2CCc3ccccc3C2)cc1 [Compound 16, 4-((3,4-dihydroisoquinolin-2(1H)-yl)methyl)-N-(2-fluorophenyl)benzamide] | 2.1 |  | 74.7 | 6.9 µM and 6.93 µM
O=C(Nc1cccc(F)c1)c1ccc(CN2CCc3ccccc3C2)cc1 [Compound 17, 4-((3,4-dihydroisoquinolin-2(1H)-yl)methyl)-N-(3-fluorophenyl)benzamide] | 7.7 |  | 10.0 | 
O=C(Nc1ccc(F)cc1)c1ccc(CN2CCc3ccccc3C2)cc1 [Compound 18, 4-((3,4-dihydroisoquinolin-2(1H)-yl)methyl)-N-(4-fluorophenyl)benzamide] | 7.0 |  | 14.1 | 
O=C(NCc1ccc(F)cc1)c1ccc(CN2CCc3ccccc3C2)cc1 [Compound 19, 4-((3,4-dihydroisoquinolin-2(1H)-yl)methyl)-N-(4-fluorobenzyl)benzamide] | 2.3 |  | 83.9 | 14.8 ± 0.58 µM
O=C(NNc1ccc(F)cc1)c1ccc(CN2CCc3ccccc3C2)cc1 [Compound 20, 4-((3,4-dihydroisoquinolin-2(1H)-yl)methyl)-N2019-(4-fluorophenyl)benzohydrazide] | 21.8 |  | 13.2 | 
O=C(Nc1ccc(Cl)cc1F)c1ccc(CN2CCc3ccccc3C2)cc1 [Compound 21, N-(4-chloro-2-fluorophenyl)-4-((3,4-dihydroisoquinolin-2(1H)-yl)methyl)benzamide] | 5 |  | 38.6 | 
O=C(Nc1ccc(Br)cc1F)c1ccc(CN2CCc3ccccc3C2)cc1 [Compound 22, N-(4-bromo-2-fluorophenyl)-4-((3,4-dihydroisoquinolin-2(1H)-yl)methyl)benzamide] | 28.3 |  | 15.4 | 
O=C(Nc1cccc(Br)c1)c1ccc(CN2CCc3ccccc3C2)cc1 [Compound 24, N-(3-bromophenyl)-4-((3,4-dihydroisoquinolin-2(1H)-yl)methyl)benzamide] | 21.6 |  | 35.1 | 
O=C(Nc1ccc(Br)cc1)c1ccc(CN2CCc3ccccc3C2)cc1 [Compound 25, N-(4-bromophenyl)-4-((3,4-dihydroisoquinolin-2(1H)-yl)methyl)benzamide] | 40.6 |  | 8.1 | 
O=C(Oc1ccccc1Br)c1ccc(CN2CCc3ccccc3C2)cc1 [Compound 26, 2-bromophenyl 4-((3,4-dihydroisoquinolin-2(1H)-yl)methyl)benzoate] | 26.2 |  | 11 | 
O=C(Sc1ccccc1Br)c1ccc(CN2CCc3ccccc3C2)cc1 [Compound 27, S-(2-bromophenyl) 4-((3,4-dihydroisoquinolin-2(1H)-yl)methyl)benzothioate] | 22.8 |  | 1.5 | 
O=C(NCCc1c[nH]c2ccccc12)c1ccc(CN2CCc3ccccc3C2)cc1 [Compound 28, N-(2-(1H-indol-3-yl)ethyl)-4-((3,4-dihydroisoquinolin-2(1H)-yl)methyl)benzamide] | 8.4 |  | 1.3 | 
